Data as given in patent publication US8334316B2, “Substituted organosulfur compounds and methods of using thereof” (ACEA Biosciences, Inc., priority 2004, dated 2012).

Tests used:
[1] = system: microtubules in COS cells; assay: Microtubule network in cultured COS cells (anti-tubulin immunofluorescence, confocal microscopy); type: cell-based
Description: Cell Culture and Immunocytochemistry. COS cells were grown in DMEM media supplemented with non-essential amino acids, 10% FBS, antibiotic-antimycotic (Gibco BRL) at 37° C. and 5.5% CO2. […] Cells were then rinsed once with warm PBS, fixed with cold methanol, rinsed again in PBS and blocked overnight at 4° C. in PBT (PBS, 1% BSA, 0.5% Triton X-100). All subsequent stains and washes were done in PBT at room temperature unless stated otherwise. Cells were stained with the anti-tubulin mouse antibody DM-1 at 1:1000 for 1 hour, washed four times for 15 minutes each and then treated with Cy-3 conjugated goat anti mouse antibody at 1:100 for 1 hour in the dark. Next, samples were washed four times for 15 minutes each in PBT in the dark followed by a final 15 minute wash in PBS in the dark. Samples were then viewed by laser scanning confocal microscopy.

[2] = system: purified bovine brain tubulin; assay: In vitro microtubule dynamics (dynamic instability) assay, video microscopy; type: biochemical
Description: Tubulin Purification and Microtubule Dynamics Assays. Tubulin was purified, as described in the literature (“Kinetic stabilization of microtubule dynamic instability in vitro by vinblastine”, Toso, R. J., Jordan, […]., Matsumoto, B. and Wilson, L., Biochemistry, 1993, 32, 1285-1293). Briefly, microtubule-associated protein-rich bovine brain microtubule protein was prepared by three cycles of assembly and disassembly. Tubulin was purified from other microtubule proteins by elution through a Whatman P-11 phosphocellulose column equilibrated in PEM50 (50 mM Pipes, 1 mM MgSO4, 1 mM EGTA, 0.1 mM GTP). Purified tubulin (>99% pure) was drop-frozen in liquid nitrogen and stored at -70° C. […] The dynamics of individual microtubules were recorded at 37° C. using differential interference contrast enhanced video microscopy. The ends were designated as plus or minus on the basis of the growth rate, the number of microtubules that grew at opposite ends of the seeds, and the relative lengths of the microtubules (Panda, D., Goode, […]. and Wilson, L., Kinetic stabilization of microtubule dynamics at steady state by tau and microtubule-binding domains of tau, Biochemistry, 1995, 34, 11117-11127; Walker, R. A., O'Brien, […]., Voter, W. A., Erickson, H. P. and Salmon, E. D., Dynamic instability of individual microtubules analyzed by video light microscopy: rate constants and transition frequencies, J. Cell Biol. 1988, 107, 1437-1448). Plus ends were analyzed for 10 minutes per slide during the steady-state phase of polymerization ( 45 min after initiation of polymerization). Life histories of individual microtubules were collected as described by Panda et al. 1995 (Panda, D., Goode, […]. and Wilson, L., Kinetic stabilization of microtubule dynamics at steady state by tau and microtubule-binding domains of tau, Biochemistry, 1995, 34 11117-11127) with modifications. Data points were collected at 1-3 s intervals. […] Average rates, lengths and durations are the averages of independent events. The catastrophe frequency was calculated by dividing the number of shortening events by the total time of growth and attenuation tracked, and rescue frequency was calculated by dividing the number of rescue events by the total time of shortening tracked. To control for experimental error, each condition was filmed over multiple days using at least two distinct tubulin/GTP mixtures (2-3 slides each). No gross variation in microtubule dynamics was observed between mixtures or slides of a given condition. The concentration of drug used in dynamic instability assays was chosen by initially observing microtubules stabilized with half the concentration used in microtubule assembly assays.

[3] = shortening events, ACEA100108 .2uM

`Fc1ccc(CSSSCc2ccc(F)cc2)cc1` [ACEA100108, Di(p-fluorobenzyl)trisulfide] was tested, and the Microtubule network appearance ([1]; 4 hours exposure) was “the microtubule network is markedly altered at all concentrations tested”, the Microtubule network appearance ([1]; 24 hours, 1 uM and 3 uM) was “appear relatively normal” and the Microtubule network appearance ([1]; 24 hours, 9 uM) was “the microtubules appear short and the network is abnormal”. The “% time spent in attenuation phase” value ([2]; ACEA100108 .2uM) was 69%, the “% time spent in growth phase” value ([2]; ACEA100108 .2uM) was 30% and the “% time spent in shortening phase” value ([2]; ACEA100108 .2uM) was 1%. For the same compound, the Dynamicity ([2]; ACEA100108 .2uM) was 0.83 um/min, the “Frequency of transitions ± SD: Catastrophes” value ([2]; ACEA100108 .2uM) was 0.09 ± 0.03 events/min and the “Frequency of transitions ± SD: Rescues” value ([2]; ACEA100108 .2uM) was 9.4 ± 3.0 events/min. For the same compound, the “Frequency of transitions ± SD: Total” value ([2]; ACEA100108 .2uM) was 0.32 ± 0.06 events/min, the “Growth Rate ± SEM” value ([2]; ACEA100108 .2uM) was 1.59 ± 0.1 um/min and the “Mean duration of attenuation ± SEM” value ([2]; ACEA100108 .2uM) was 3.74 ± 0.7. For the same compound, the “Shortening Rate ± SEM” value ([2]; ACEA100108 .2uM) was 35.8 ± 4.3 um/min, the “Duration of Event” value ([2]; growth events, ACEA100108 .2uM) was 2.04 ± 0.3 min and the “Length of Excursion” value ([2]; growth events, ACEA100108 .2uM) was 3.24 ± 0.3 um. For the same compound, the “Effect on duration of growth events” value ([2]; plus ends, steady state) was “increased the duration of growth events”, the “Effect on length of growth events” value ([2]; plus ends, steady state) was “increased the duration of growth events and the average length of growth events” and the “Effect on length of shortening events” value ([2]; plus ends, steady state) was “strong effect upon the length of shortening events”. For the same compound, the “Duration of Event” value [2, 3] was 0.11 ± 0.02 min and the “Length of Excursion” value [2, 3] was 3.79 ± 0.3 um.
For `Cc1cccc(CSSSCc2cccc(C)c2)c1` [ACEA100116, di(m-methylbenzyl)trisulfide], the Microtubule network appearance ([1]; 4 hours exposure) was “at the two higher concentrations, microtubules appear very short and abnormal”, the “Microtubule network / cell appearance” value ([1]; 24 hours, 1 uM) was “appear relatively normal” and the Cell viability ([1]; 24 hours, 3 uM or 9 uM) was “essentially all cells treated with 3 uM or 9 uM were dead”. For the same compound, the “Effect on length of growth events” value ([2]; plus ends, steady state) was “little effect upon the length of growing events”, the “Effect on length of shortening events” value ([2]; plus ends, steady state) was “strong effect upon the length of shortening events” and the “Effect on microtubule growth rate” value ([2]; plus ends, steady state) was “increased the growth rate”. For the same compound, the “Effect on rate of shortening” value ([2]; plus ends, steady state) was “no effect upon the rate of shortening”.
For `c1ccc(CSSSCc2ccccc2)cc1` [DBTS, Dibenzyl trisulfide], the Microtubule network appearance ([1]; 4 hours exposure) was “The microtubule network is completely disrupted”, the “Cell viability / microtubule network” value ([1]; 24 hours, 6 uM or 18 uM) was “no cells are viable” and the “% time spent in attenuation phase” value ([2]; DBTS .1uM) was 52%. For the same compound, the “% time spent in growth phase” value ([2]; DBTS .1uM) was 45%, the “% time spent in shortening phase” value ([2]; DBTS .1uM) was 3% and the Dynamicity ([2]; DBTS .1uM) was 1.72 um/min. For the same compound, the “Frequency of transitions ± SD: Catastrophes” value ([2]; DBTS .1uM) was 0.17 ± 0.04 events/min, the “Frequency of transitions ± SD: Rescues” value ([2]; DBTS .1uM) was 5.3 ± 1.3 events/min and the “Frequency of transitions ± SD: Total” value ([2]; DBTS .1uM) was 0.50 ± 0.07 events/min. For the same compound, the “Growth Rate ± SEM” value ([2]; DBTS .1uM) was 1.55 ± 0.1 um/min, the “Mean duration of attenuation ± SEM” value ([2]; DBTS .1uM) was 2.15 ± 0.3 and the “Shortening Rate ± SEM” value ([2]; DBTS .1uM) was 35.40 ± 6.0 um/min. The “Duration of Event” value ([2]; growth events, DBTS .1uM) was 2.21 ± 0.3 min, the “Length of Excursion” value ([2]; growth events, DBTS .1uM) was 3.34 ± 0.3 um and the “Effect on duration of growth events” value ([2]; plus ends, steady state) was “increase the average duration of growth events”. The “Effect on length of growth events” value ([2]; plus ends, steady state) was “increase the average duration of growth events and consequently the average length grown in a growth event”, the “Effect on length of shortening events” value ([2]; plus ends, steady state) was “reduced” and the “Effect on microtubule growth rate” value ([2]; plus ends, steady state) was “did not affect the microtubule growth rate”. For the same compound, the “Effect on percentage of time spent growing” value ([2]; plus ends, steady state) was “increased the percentage of time spent growing”, the “Duration of Event” value ([2]; shortening events, DBTS .1uM) was 0.17 ± 0.04 min and the “Length of Excursion” value ([2]; shortening events, DBTS .1uM) was 6.02 ± 0.3 um.
`CC(=O)O[C@H]1C(=O)[C@@]2(C)[C@H]([C@H](OC(=O)c3ccccc3)[C@]3(O)C[C@H](OC(=O)[C@H](O)[C@@H](NC(=O)c4ccccc4)c4ccccc4)C(C)=C1C3(C)C)[C@]1(OC(C)=O)CO[C@@H]1C[C@@H]2O` [Taxol, paclitaxel, reference compound] was tested, and the Microtubule network appearance ([1]; 4 hours exposure) was “Microtubules appear bundled in some locations” and the Microtubule network appearance ([1]; 24 hours exposure, increasing dosage) was “increased bundling and the short microtubules persist”.
